Test results: paper PMC3419223, “Transient Receptor Potential Ankyrin 1 Channel Localized to Non-Neuronal Airway Cells Promotes Non-Neurogenic Inflammation” (PLoS ONE, 2012)
Ends that are not written are not given here.

Experiments:
PAR-2 receptor = molecular target: T1, PAR-2 receptor (Homo sapiens, UniProt P55085); assay: Calcium imaging, response to the PAR-2 activating peptide (selectivity control); assay type: cell-based; conditions: PAR-2 AP 100 µM; antagonist 10 µM
T1 construct: endogenous in cells
T1 sequence (P55085 26-397): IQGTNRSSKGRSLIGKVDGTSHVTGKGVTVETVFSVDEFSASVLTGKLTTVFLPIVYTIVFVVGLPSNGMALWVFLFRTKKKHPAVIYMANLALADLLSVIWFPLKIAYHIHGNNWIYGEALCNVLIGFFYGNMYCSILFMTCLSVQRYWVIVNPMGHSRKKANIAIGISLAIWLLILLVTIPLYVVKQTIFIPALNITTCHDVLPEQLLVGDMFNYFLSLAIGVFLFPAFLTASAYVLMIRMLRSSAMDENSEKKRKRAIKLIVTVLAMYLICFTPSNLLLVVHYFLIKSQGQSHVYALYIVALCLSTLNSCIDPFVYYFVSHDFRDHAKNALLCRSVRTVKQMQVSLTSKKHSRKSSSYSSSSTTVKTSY
Protocol: (§1) For calcium fluorescence measurements, cells were incubated with 5 µM Fura-2AM ester (Alexis Biochemicals) for 40 minutes at 37°C. Intracellular calcium levels were measured and recorded with a dynamic image analysis system (Laboratory Automation 2.0; RC Software). Fluorescence was measured during excitation at 340 and 380 nm, and after correction for the individual background fluorescence signals, the ratio of the fluorescence at both excitation wavelengths (Ratio340/380) was monitored. Experiments were performed using buffer solution containing (in mM): 150 NaCl, 6 KCl, 1 MgCl2, 1.5 CaCl2, 10 glucose, 10 HEPES at pH 7.4. Cells were stimulated with cinnamaldehyde (0.1–3000 µM), acrolein (0.1–3000 µM), CSE (0.001–0.5 OD), capsaicin (1 µM) and the activating peptide (SLIGKV-NH2) of the human PAR-2 receptor (hPAR-2 AP; 100 µM), or their respective vehicles (0.3% DMSO,aqueous buffer or 1% ethanol). HC-030031 and AP18 vehicles (used in all the in vitro experiments) were 3% DMSO and 1% DMSO, respectively. Results are expressed as the increase of Ratio340/380 over the baseline normalized to the maximum effect induced by ionomycin (5 µM) added at the end of the experiment.

TRPA1 = molecular target: T2, TRPA1 (Homo sapiens, UniProt O75762); assay: Calcium imaging (Fura-2) of TRPA1 agonist responses in human airway/lung cells; assay type: cell-based; conditions: for effect of antagonist on calcium response evoked by CNM, ACR or CSE: A549 and IMR90; for effect of antagonist on calcium response evoked by CNM, ACR or CSE / effect of antagonist on calcium responses to CNM, ACR and CSE: antagonist 10 µM; for EC50: intracellular calcium response
T2 construct: cultured human airway cells, including fibroblasts, epithelial and smooth muscle cells express functional TRPA1 channels; endogenous in cells; host or cells: SAEC, NHLF, HBSMC (Lonza, primary); A549, IMR90 (ATCC)
T2 sequence (O75762 whole entry): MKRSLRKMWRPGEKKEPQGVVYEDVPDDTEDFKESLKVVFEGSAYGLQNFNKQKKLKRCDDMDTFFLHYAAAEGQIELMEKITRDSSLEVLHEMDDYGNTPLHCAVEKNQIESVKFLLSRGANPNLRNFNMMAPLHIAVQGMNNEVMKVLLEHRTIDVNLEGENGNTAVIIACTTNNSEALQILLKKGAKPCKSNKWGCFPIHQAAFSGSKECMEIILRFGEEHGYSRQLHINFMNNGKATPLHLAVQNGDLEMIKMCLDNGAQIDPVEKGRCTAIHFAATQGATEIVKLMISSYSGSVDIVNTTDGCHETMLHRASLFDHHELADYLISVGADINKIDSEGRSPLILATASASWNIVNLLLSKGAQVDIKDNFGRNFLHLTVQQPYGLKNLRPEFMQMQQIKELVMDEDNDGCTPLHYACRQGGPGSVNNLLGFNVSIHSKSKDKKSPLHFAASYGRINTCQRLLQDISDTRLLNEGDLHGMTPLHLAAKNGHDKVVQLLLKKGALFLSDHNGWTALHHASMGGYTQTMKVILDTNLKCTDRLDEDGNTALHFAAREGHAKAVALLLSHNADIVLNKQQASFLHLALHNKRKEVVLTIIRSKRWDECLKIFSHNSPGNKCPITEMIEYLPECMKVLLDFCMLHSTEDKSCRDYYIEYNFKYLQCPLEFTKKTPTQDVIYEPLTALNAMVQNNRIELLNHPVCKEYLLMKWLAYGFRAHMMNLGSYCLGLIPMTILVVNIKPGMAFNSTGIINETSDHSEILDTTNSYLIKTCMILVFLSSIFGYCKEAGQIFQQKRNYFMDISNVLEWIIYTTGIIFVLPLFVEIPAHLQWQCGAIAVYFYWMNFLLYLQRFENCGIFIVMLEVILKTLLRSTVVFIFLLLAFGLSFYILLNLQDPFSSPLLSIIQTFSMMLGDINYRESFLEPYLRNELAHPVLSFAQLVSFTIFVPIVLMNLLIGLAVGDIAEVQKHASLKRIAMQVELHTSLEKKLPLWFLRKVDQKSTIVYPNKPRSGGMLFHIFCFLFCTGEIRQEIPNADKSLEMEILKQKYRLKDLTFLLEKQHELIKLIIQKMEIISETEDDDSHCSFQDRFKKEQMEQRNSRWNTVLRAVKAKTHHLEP
Protocol: Human small airway epithelial cells (SAEC), normal human lung fibroblasts (NHLF) and human bronchial smooth muscle cells (HBSMC) were purchased from Lonza. Human alveolar type II epithelium-like adherent cell line (A549) and human lung embryonic fibroblast (IMR90) were purchased from American Type Culture Collection (Manassas, VA). SAEC and NHLF were cultured respectively in SAGM and FBM medium (Lonza) according to the manufacturer's instructions. IMR90 and HBSMC were cultured in DMEM supplemented with 10% FBS, 2 mM glutamine, 100 U penicillin and 100 µg/ml streptomycin (Sigma-Aldrich), and A549 were cultured in RPMI supplemented with 10% FBS, 2 mM glutamine, 100 U penicillin, 100 µg/ml streptomycin and 1 mM HEPES (Sigma-Aldrich). All cells were cultured in an atmosphere of 95% air and 5% CO2 at 37°C.
CSE was generated as previously reported. Briefly, aqueous CSE was obtained from the combustion of four cigarettes (Marlboro Red, 12 mg of tar, 0.9 mg of nicotine each) bubbled through 50 ml of buffer and subsequently filtered through a 0.2-µm pore filter (Millipore). To ensure reproducibility among different CSE batches, the absorbance (optical density; OD) measured at 320 nm was used as a measure of the “strength” of the extract. Dilutions were made with buffer to obtain the desired absorbance. The CSE was freshly prepared on the day of the experiment and used immediately after preparation.
as §1

[1] = system: IL-8 release from SAEC, NHLF and HBSMC; assay: IL-8 release from human airway/lung cells in primary culture, ELISA; assay type: cell-based; conditions: for effect of antagonist on CSE-evoked IL-8 release / effect of antagonist on IL-8 release induced by IL-1β or TNF-α / effect of antagonist on acrolein-evoked IL-8 release: HC-030031 30 µM, AP18 10 µM; for IL-8 release: overnight exposure
Protocol: For IL-8 ELISA assays, HBSMC, SAEC, and NHLF were seeded in complete culture medium in 48-well plates, grown to ∼80–90% confluence, and incubated overnight in serum-free medium before treatments. All the treatments were performed in serum free medium. Cells were pretreated with the selective TRPA1 antagonists, HC-030031 and AP18, or their vehicles, for 30–60 min before treatment with freshly prepared acrolein, CSE, TNF-α and IL-1β for 18 hours at 37°C with 5% CO2. Subsequently, supernatants were collected and stored at −80°C for ELISA assay. Human IL-8 was measured using a paired antibody quantitative ELISA kit (Invitrogen) (detection limit: 5 pg/ml). The assays were performed according to the manufacturer's instructions. Vitality assay method (MTT reduction assay) is available online as (Text S1).

[2] = system: C57BL/6 mouse trachea and bronchi; assay: Plasma protein extravasation (Evans blue dye) after intratracheal instillation; assay type: in vivo; conditions: C57BL/6 mice; for plasma protein extravasation (PPE) after instillation into the tracheal lumen: i.t. 30 µl, acrolein 5 mM, CSE 1 OD, capsaicin 100 µM, SP 25 nM; for effect on acrolein (5 mM, i.t.)- and CSE (1 OD, i.t.)-evoked increase in PPE / effect on SP (25 nM)- and capsaicin (100 µM)-evoked Evans blue dye extravasation (PPE): L-733,060 2 µmol/kg i.v.; for effect on acrolein (5 mM, i.t.)- and CSE (1 OD, i.t.)-evoked increase in PPE: CPZ 30 mg/kg i.p., HC 300 mg/kg i.g.; for effect on SP (25 nM)- and capsaicin (100 µM)-evoked Evans blue dye extravasation (PPE): capsazepine 30 mg/kg i.p., HC-030031 300 mg/kg i.g.
Protocol: (§2) To defunctionalize/desensitize TRPV1 expressing primary sensory neurons, resiniferatoxin (RTX) was administered to C57BL/6 mice, as previously described, [40]. Briefly, mice were treated subcutaneously (s.c.) with a single injection of RTX (50 µg/kg) or its vehicle (10% ethanol and 10% tween 80 in isotonic saline) into the scruff of the neck under a light ether anesthesia to avoid unnecessary pain. Experiments were carried out 7 days after RTX treatment when responses to both TRPV1 and TRPA1 agonists in the treated mice were abolished, [40].
Anesthetized (sodium pentobarbital, 50 mg/kg i.p.) C57BL/6 mice received Evans blue dye (30 mg/kg i.v.), 1 min before intratracheal (i.t) instillation (30 µl) of acrolein (5 mM), capsaicin (100 µM), SP (25 nM), CSE (1 OD) or their vehicles (isotonic saline, 1% ethanol in isotonic saline and isotonic saline). […] The tachykinin NK1 receptor antagonist, L-733,060 (2 µmol/kg i.v.; Tocris) or its vehicle were administered 15 min before the stimulus. The TRPV1 selective antagonist, capsazepine, (30 mg/kg i.p.) or its vehicle (2.5% DMSO in isotonic saline) and intragastric (i.g.) TRPA1 selective antagonist, HC-030031 (300 mg/kg i.g.) or its vehicle were administered 30 and 60 min before the stimulus, respectively. In another set of experiments ACR (5 mM, i.t.), or its vehicle, has been administered in C57BL/6 mice desensitized to RTX (50 µg/kg; s.c.). Animals were euthanized 15 min after treatment and transcardially perfused with 0.9% isotonic saline solution. The extravasated dye was extracted from mouse trachea and bronchi by overnight incubation in formamide and assayed by spectrophotometry at 620 nm, as reported previously.

[3] = system: C57BL/6 mice, Trpa1+/+ or Trpa1-/- mice; assay: KC (CXCL-1) release in bronchoalveolar lavage fluid, ELISA; assay type: in vivo, mouse; conditions: for KC in BAL 24 hours after intratracheal instillation: i.t. 30 µl, acrolein 5 mM, CSE 1 OD, capsaicin 100 µM, SP 25 nM; for effect of pretreatment on KC release evoked by acrolein or CSE: HC-030031 300 mg/kg i.g., L-733,060 2 µmol/kg i.v.
Protocol: as §2
Trpa1^+/+ or Trpa1^−/− B6129P mice (5 per group) were exposed acutely to the cigarette smoke (CS) produced with commercial cigarettes (Marlboro Red, 12 mg of tar, 0.9 mg of nicotine each), by using a “nose-only” exposure unit. The smoke produced by cigarette burning was introduced into the exposure chamber (inner volume = 11.61 l) with the airflow generated by a mechanical ventilator (7025 Rodent Ventilator, Ugo Basile) at a rate of 250 ml/min [58]. A second mechanical ventilator was used to provide room air for dilution (1∶8) of the smoke stream. Mice were exposed to the smoke of 5 cigarettes per exposure period, twice daily, for 3 consecutive days, and sacrificed 24 hours later. Genotype-, age-, strain- and sex-matched control animals were exposed to air only in the same manner for the same duration of time. Anesthetized C57BL/6, and Trpa1^+/+ or Trpa1^−/− (C57BL/6) mice were intratracheally administered with (30 µl) acrolein (5 mM), capsaicin (100 µM), SP (25 nM) and CSE (1 OD) or their vehicles (isotonic saline, 1% ethanol in isotonic saline and isotonic saline) and sacrificed 24 hours later. The NK1 receptor antagonist, L-733,060 (2 µmol/kg i.v.; Tocris) or its vehicle (isotonic saline) were administered 15 min before the stimulus, and i.g. HC-030031 (300 mg/kg) or its vehicle (0.5% CMC in isotonic saline 0.9%) were administered 1 hour before the stimulus. In another set of experiments ACR (5 mM, i.t.), or its vehicle, has been administered in C57BL/6 mice desensitized to RTX (50 µg/kg; s.c.). Animals were sacrificed 24 hours after the last exposure/treatment with an overdose of anesthetic followed by exsanguination, and the lungs were lavaged using a cannula inserted into the trachea and instilling 1 ml of Hank's Buffer added with HEPES 10 mM and EDTA 10 mM three times. […] BAL were centrifuged at 200× g at 4°C for 10 min, and the cell-free supernatants were stored at −80°C for cytokine determination. Frozen cell-free BAL was analyzed for keratinocyte chemoattractant (CXCL-1/KC, the murine analogue of IL-8) release by using a commercial ELISA-assay (Invitrogen).

TRPV1 = assay: Calcium imaging, response to the TRPV1 agonist capsaicin in human airway/lung cells; assay type: cell-based; conditions: 1 µM; SAEC, A549, NHLF, IMR90 and HBSMC; data not shown

CC(=C\c1ccc(Cl)cc1)/C(C)=N/O [AP18]
effect of antagonist on calcium response to the PAR-2 activating peptide (PAR-2 receptor): did not affect
effect of antagonist on calcium response evoked by CNM, ACR or CSE (TRPA1): abolished
effect of antagonist on calcium responses to CNM, ACR and CSE (TRPA1; SAEC, NHLF, HBSMC): prevented
effect of antagonist on CSE-evoked IL-8 release [1]: reduced
effect of antagonist on IL-8 release induced by IL-1β or TNF-α [1]: not affected
effect of antagonist on acrolein-evoked IL-8 release [1]: significantly reduced

C=CC=O [Acrolein, acrolein]
plasma protein extravasation (PPE) after instillation into the tracheal lumen [2]: increased PPE
EC50 (TRPA1; A549): 7.3 µM
EC50 (TRPA1; HBSMC): 6.3 µM
EC50 (TRPA1; IMR90): 2.9 µM
EC50 (TRPA1; NHLF): 4.4 µM
EC50 (TRPA1; SAEC): 56.9 µM
IL-8 release [1]: concentration-dependent IL-8 release
KC release in Trpa1-/- mice ([3]; 5 mM i.t., Trpa1-/- mice (C57BL/6)): completely absent
KC in BAL 24 hours after intratracheal instillation ([3]; C57BL/6 mice): significantly increased

O=C/C=C/c1ccccc1 [Cinnamaldehyde, cinnamaldehyde]
EC50 (TRPA1; A549): 10.9 µM
EC50 (TRPA1; HBSMC): 6.7 µM
EC50 (TRPA1; IMR90): 2.7 µM
EC50 (TRPA1; NHLF): 6.6 µM
EC50 (TRPA1; SAEC): 46.3 µM
IL-8 release [1]: release IL-8

CC(C)c1ccc(NC(=O)Cn2cnc3c2c(=O)n(C)c(=O)n3C)cc1 [HC-030031]
effect on acrolein (5 mM, i.t.)- and CSE (1 OD, i.t.)-evoked increase in PPE [2]: prevent
effect of antagonist on calcium response to the PAR-2 activating peptide (PAR-2 receptor): did not affect
effect of antagonist on calcium response evoked by CNM, ACR or CSE (TRPA1): abolished
effect of antagonist on calcium responses to CNM, ACR and CSE (TRPA1; SAEC, NHLF, HBSMC): prevented
effect of antagonist on CSE-evoked IL-8 release [1]: reduced
effect of antagonist on IL-8 release induced by IL-1β or TNF-α [1]: not affected
effect of antagonist on acrolein-evoked IL-8 release [1]: significantly reduced
effect of pretreatment on KC release evoked by acrolein or CSE ([3]; C57BL/6 mice): significantly reduced

FC(F)(F)c1cc(CO[C@H]2CCCN[C@H]2c2ccccc2)cc(C(F)(F)F)c1 [L-733,060]
effect on acrolein (5 mM, i.t.)- and CSE (1 OD, i.t.)-evoked increase in PPE [2]: prevent
effect on SP (25 nM)- and capsaicin (100 µM)-evoked Evans blue dye extravasation (PPE) [2]: prevented
effect of pretreatment on KC release evoked by acrolein or CSE ([3]; C57BL/6 mice): failed to reduce

C=C(C)[C@]12C[C@@H](C)[C@@]34O[C@](Cc5ccccc5)(O[C@@H]1[C@@H]3C=C(COC(=O)Cc1ccc(O)c(OC)c1)C[C@]1(O)C(=O)C(C)=C[C@@H]41)O2 [RTX, resiniferatoxin]
acrolein-induced PPE after desensitization ([2]; RTX 50 µg/kg s.c., 7 days before, ACR 5 mM i.t.): completely abolished
acrolein-induced increase in KC in BAL fluid after desensitization ([3]; RTX 50 µg/kg s.c., 7 days before, ACR 5 mM i.t., C57BL/6 mice): remained unchanged

COc1cc(CNC(=O)CCCC/C=C/C(C)C)ccc1O [capsaicin]
plasma protein extravasation (PPE) after instillation into the tracheal lumen [2]: increased PPE
calcium response (TRPV1): failed to produce any visible calcium response
KC in BAL 24 hours after intratracheal instillation ([3]; C57BL/6 mice): failed to increase

Oc1cc2c(cc1O)CN(C(=S)NCCc1ccc(Cl)cc1)CCC2 [capsazepine]
effect on SP (25 nM)- and capsaicin (100 µM)-evoked Evans blue dye extravasation (PPE) [2]: prevented

substance P (RPKPQQFFGLM-NH2; ends and bridges not checked; UniProt P20366 58-68, looked up) [SP, neuropeptide tachykinin released from sensory nerve terminals]
plasma protein extravasation (PPE) after instillation into the tracheal lumen [2]: increased PPE
KC in BAL 24 hours after intratracheal instillation ([3]; C57BL/6 mice): failed to increase
